Test results reported in US20250134842A1, “FATTY ACID MIMETICS AS MODULATORS OF NUCLEAR RECEPTOR TLX (NR2E1)” (Trustees of Dartmouth College, priority 2023, published 2025).

Target: nuclear receptor TLX (NR2E1) ligand-binding domain (Homo sapiens (Human), UniProt Q9Y466)
Assay: AlphaScreen assay detecting TLX-RIP140 NR box peptide interaction
Assay type: biochemical
Conditions: for EC50 / Efficacy (fold increase): his-tagged TLX LBD, biotinylated RIP140-L6 peptide recruitment; for Emax: read-out: Relative efficacy (%)
Description: In these experiments, compounds from Example 1 were evaluated in a biochemical assay to characterize ligand binding to TLX by detecting alterations in the ability of the TLX ligand binding domain to recruit an NR box peptide derived from the nuclear receptor-interacting protein 1 (NRIP1; receptor-interacting protein 140 (RIP140) transcriptional cofactor. RIP140 has been previously identified as a TLX interacting protein (Corso-Diaz X, et al. (2016) Co-activator candidate interactions for orphan nuclear receptor NR2E1. BMC Genomics 17:832).
AlphaScreen (Perkin Elmer, Shelton, CT) technology was used to detect the TLX-RIP140 NR box peptide interaction. The AlphaScreen assay was performed as previously described using other nuclear receptors including ROR, FXR, LXR, VDR and RXR (Bettoun D J, et al., (2003) Mol Endocrinol 17:2320-2328; Bramlett K S, et al., (2003) Journal of Pharmacology and Experimental Therapeutics 307:291-296; Houck K A, at al., (2004) Mol Genet Metab 83:184-187; Kumar N, et al., (2010) Mol Pharmacol 77:228-236; and Wang Y, et al., (2010) ACS Chemical Biology: 1029-1034. The present experiments used the N-terminal his-tagged ligand-binding domain (LBD) of TLX (NovAliX SAS, Strasbourg, France) and an N-terminal biotinylated RIP140-L6 peptide with a N-terminal KGG linker, namely ([…] (aa484-513)).

nuclear receptor TLX (NR2E1) ligand-binding domain, sequence (Q9Y466 155-383): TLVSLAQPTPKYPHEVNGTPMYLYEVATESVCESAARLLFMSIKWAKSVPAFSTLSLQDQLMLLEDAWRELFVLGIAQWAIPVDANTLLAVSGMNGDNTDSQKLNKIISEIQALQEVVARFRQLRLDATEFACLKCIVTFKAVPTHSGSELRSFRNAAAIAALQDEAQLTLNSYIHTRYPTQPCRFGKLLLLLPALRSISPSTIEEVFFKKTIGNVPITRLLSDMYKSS

EC50 [nM] | Efficacy (fold increase) [fold] | Emax (relative to oleic acid = 100.0) [%] | SMILES | Relative efficacy (%) (relative to oleic acid = 100.0)
1600 | 6.1 | 72.6 | CCCCCCC[C@H](C)/C=C(/C)C/C(C)=C/[C@@H](C)CCCC(=O)O [Compound 2-F] | 
1900 | 7.2 | 85.7 | CCCCCCCCC[C@H](C)/C=C(/C)C/C(C)=C/[C@@H](C)CC(=O)O [Compound 1-F] | 
1300 | 5.8 | 69 | CCCCCCC[C@H](C)/C=C(/C)C/C(C)=C/[C@H](C)CCCC(=O)O [Compound 2-E] | 
2400 | 6.5 | 77.4 | CCCCCCCCCC/C=C(/C)C/C(C)=C/[C@@H](C)CC(=O)O [Compound 1-B] | 
1500 | 6.2 | 73.8 | CCC[C@@H](C)/C=C(/C)C/C(C)=C/[C@H](C)CCCCCCCC(=O)O [Compound 4-C] | 
1500 | 6.6 | 78.6 | CCCC/C=C(/C)C/C(C)=C/[C@H](C)CCCCCCCC(=O)O [Compound 4-A] | 
1200 | 6.1 | 72.6 | CCCCC[C@@H](C)/C=C(/C)C/C(C)=C/[C@@H](C)CCCCCC(=O)O [Compound 3-D] | 
900 | 6.6 | 78.6 | CCCCCC/C=C(/C)C/C(C)=C/[C@@H](C)CCCCCC(=O)O [Compound 3-B] | 
900 | 6.0 | 71.4 | CCCCC[C@H](C)/C=C(/C)C/C(C)=C/[C@@H](C)CCCCCC(=O)O [Compound 3-F] | 
1600 | 6.2 | 73.8 | CCC[C@@H](C)/C=C(/C)C/C(C)=C/[C@@H](C)CCCCCCCC(=O)O [Compound 4-D] | 
1600 | 6.5 | 77.4 | CCCCCC/C=C(/C)C/C(C)=C/[C@H](C)CCCCCC(=O)O [Compound 3-A] | 
1700 | 6.2 | 73.8 | CCCCCCCCC[C@H](C)/C=C(/C)C/C(C)=C/[C@H](C)CC(=O)O [Compound 1-E] | 
1300 | 5.7 | 67.9 | CCC[C@H](C)/C=C(/C)C/C(C)=C/[C@H](C)CCCCCCCC(=O)O [Compound 4-E] | 
3100 | 6.8 | 81 | CCCCCCCCC[C@@H](C)/C=C(/C)C/C(C)=C/[C@H](C)CC(=O)O [Compound 1-C] | 
1300 | 5.8 | 69 | CCCCCCC[C@@H](C)/C=C(/C)C/C(C)=C/[C@@H](C)CCCC(=O)O [Compound 2-D] | 
2200 | 6.1 | 72.6 | CCCCCCCCCC/C=C(/C)C/C(C)=C/[C@H](C)CC(=O)O [Compound 1-A] | 
2500 | 6.6 | 78.6 | CCCCCCCC/C=C(/C)C/C(C)=C/[C@H](C)CCCC(=O)O [Compound 2-A] | 
1000 | 6.3 | 75 | CCCCC[C@H](C)/C=C(/C)C/C(C)=C/[C@H](C)CCCCCC(=O)O [Compound 3-E] | 
3000 | 7.1 | 84.5 | CCCC/C=C(/C)C/C(C)=C/[C@@H](C)CCCCCCCC(=O)O [Compound 4-B] | 
3200 | 7.1 | 84.5 | CCCCCCCCC[C@@H](C)/C=C(/C)C/C(C)=C/[C@@H](C)CC(=O)O [Compound 1-D] | 
1900 | 6.0 | 71.4 | CCC[C@H](C)/C=C(/C)C/C(C)=C/[C@@H](C)CCCCCCCC(=O)O [Compound 4-F] | 
1500 | 6.6 | 78.6 | CCCCCCC[C@@H](C)/C=C(/C)C/C(C)=C/[C@H](C)CCCC(=O)O [Compound 2-C] | 
800 | 5.5 | 65.5 | CCCCC[C@@H](C)/C=C(/C)C/C(C)=C/[C@H](C)CCCCCC(=O)O [Compound 3-C] | 
3100 | 6.6 | 78.6 | CCCCCCCC/C=C(/C)C/C(C)=C/[C@@H](C)CCCC(=O)O [Compound 2-B] | 

SMILES | EC50 [nM] | Efficacy (fold increase) [fold] | Emax (relative to oleic acid = 100.0) [%] | Relative efficacy (%) (relative to oleic acid = 100.0)
CCCCCCCC/C=C\CCCCCCCC(=O)O [Oleic Acid, oleic acid, reference compound] | 3600 | 8.4 |  | 100.0
